Test results published in patent US20130065969A9, “Odour Compounds” (priority 2009, published 2013).

What was measured:
[1] = Odour threshold by GC detection at the sniffing port (panel of 5 persons); details: mean of individual thresholds of 5 panelists
Protocol: For each compound the odour threshold value was determined by gas chromatograph (GC) detection. […] Each panelist (panel of 5 persons) smelled blind and pressed a button upon perceiving an odor. If the recorded time matched the retention time, the sample was further diluted. The last quantity detected at the correct retention time was the panelist's individual odor threshold. The final threshold value for a given test compound was obtained as the mean value of the individual threshold levels.
Further information of the technique described hereinabove may be found in N. Neuner-Jehle, F. Etzweiler. ‘Measuring of Odors’, in P. Müller. D. Lamparsky (Eds,). ‘Perfumes. Art, Science and Technology’, Elsevier Appl. Science Publ., London. 1991: pp. 153.

[2] = Vapour pressure by saturated headspace trapping and GC quantification; assay type: physicochemical; details: headspace concentration at constant 25° C., mean of three independent measurements
Protocol: For each compound the vapour pressure was determined via the following procedure: 500 mg of the test compound was added to a headspace container which was then scaled. The container was incubated at constant 25° C. until the compound reached equilibrium between the gas and the liquid phase. An exactly defined but variable volume between 0.5-1.0 L of this saturated headspace was trapped on a micro filter using Porapak Q as sorbent. After filter extraction with 30-100 μl methyl tert.-butyl ether), an aliquot of the extract was analyzed by gas chromatograph (GC). Quantification was performed by the external standard calibration method. The concentration in the original headspace was calculated (in terms of μg/l) from the headspace volume sucked through the micro filter and the aliquot of the filter extract injected into the gas chromatograph. The final headspace concentration value for a given test compound was obtained as the mean value of three independent measurements.
Further information of the technique described hereinabove may be found in the article of F. Etzweiler, E. Senn, N. Neuner-Jehle, Ber. Bunsen-Ges. Phys. Chem. 1984, 88, 578.

C/C(=C\C(C)C)C(C)OC(C)(C)COC(=O)C1CC1 (centres unmarked) [(3″E)-2-(3,5-Dimethylhex-3-en-2-yloxy)-2-methylpropyl cyclopropanecarboxylate, reference compound]
Odour Threshold [1]: 5.9 ng/L
Vapour Pressure [2]: 27.57 µg/L

CC/C(=C\C(C)C)C(C)OC(C)(C)COC(=O)C1CC1 (centres unmarked) [Example 2, (3″E)-2′-(3″-Ethyl-5″-methylhex-3″-en-2″yloxy)-2′-methylpropyl cyclopropanecarboxylate]
Odour Threshold [1]: 2.2 ng/L
Vapour Pressure [2]: 10.61 µg/L

CC/C(=C\C(C)C)C(C)OC(C)(C)COC(=O)C1CCC1 (centres unmarked) [Example 4, (3″E)-2′-(3″-Ethyl-5″-methylhex-3″-en-2″-yloxy)-2′-methylpropyl cyclobutanecarboxylate]
Vapour Pressure [2]: 4.76 µg/L
